Assay results from patent US11524051B2, “Methods of treating fungal infections” (United States of America as represented by the Secretary of …, priority 2017, dated 2022).
Square brackets hold non-standard residues; d marks the D form. Ends that are not written are not given here. Peptide text beside a SMILES is read from it.

Tests used:
human red blood cells = assay: Hemolysis assay; format: cell-based; settings: 1 hour at 37° C., versus untreated controls
Procedure: The hemolytic activity of BmKn2, dBmKn2, Kn2-7, dKn2-7, and melittin was assessed using human red blood cells (RBCs). The RBCs were prepared from human whole blood (BioreclamationIVT, Westbury, N.Y., USA) according to a previous report (Evans et al, J. Vis. Exp. (73), 50166, doi:10.3791/50166 (2013)). In brief, human whole blood was centrifuged, and the RBCs were washed with PBS 3-4 times and then diluted 1:20 of the original volume in PBS. Peptides at various concentrations from 0-400 μg/mL in PBS were mixed with an equal volume of the diluted RBCs in a 96-well microtiter plate and allowed to incubate for 1 hour at 37° C. The plate was then centrifuged at 500 g for 5 minutes and 100 μL of the supernatant was transferred to a 96-well, transparent, flat-bottomed plate. Sample absorbances were read at 490 nm using a BioTek Synergy HT plate reader (BioTek, Winooski, Vt.). PBS was used as a negative control (blank), and 1% Triton X-100 was used as a positive control for 100% hemolysis. The percent hemolysis for the unknown samples was calculated according to the following equation: […]

[1] = Stability of peptides in human serum (LC-MS); format: in vitro ADME; settings: 37° C.; for remaining at 24 h, 50 μg/mL: 25% human serum (v/v), pH 7, 25% human serum in RPMI 1640, after 24 hours, read-out: peptide remaining, percent of t0; for reduction of peptide amount: 100% culture medium (RPMI 1640), 24 hours, 50 μg/mL
Procedure: The stability of Kn2-7 and dKn2-7 (50 μg/mL) were studied in 25% human serum (v/v) (BioreclamationIVT, Westbury, N.Y., USA) in 1640 RPMI media (made with 165 mM MOPS, pH 7.0) or in 100% 1640 RPMI medium at 37° C. (H. Jenssen, S. I. Aspmo, Serum stability of peptides, Peptide-Based Drug Design (2008) 177-186.) At predetermined time points, 100 μL aliquots of each solution was removed and thoroughly mixed with 200 μL of 96% ethanol. This was incubated on ice for 15 minutes followed by centrifugation at 10,000 g for 5 minutes to pellet the precipitated proteins. The supernatant (200 μL) was carefully removed, spiked with peptide 1018 (VRLIVAVRIWRR; SEQ ID NO. 3) at 1 μg/mL as the internal standard, and stored at −20° C. prior to liquid chromatography-mass spectrometry (LC/MS) analysis. Peptide 1018 is a synthetic peptide derived from bactenecin, a bovine neutrophil host defense peptide. (Mansour, S. C., et al. (2015) J. Pept. Sci., 21, 323-329. doi: 10.1002/psc.2708. The peptide sequence was synthesized by Genemed Synthesis Inc. (San Antonio, Tex.).
Liquid chromatography was performed on a Shimadzu HPLC system (Shimadzu Scientific Instruments, Inc., Columbia, Md.). A 10-μl aliquot of the sample was injected into an Agilent ZORBAX Eclipse XDB 80 Å C18 (2.1×50 mm, 5 μm) column (Agilent, Santa Clara, Calif.) held at 40° C. Mass spectrometric analysis was carried out on an AB Sciex API 4000 mass spectrometer (AB Sciex, Framingham, Mass.) with an electrospray ionization (ESI) interface and triple quadrupole mass analyzer. The peak areas of Kn2-7 and dKn2-7 on the LC-MS chromatograms were standardized to the peak area for peptide 1018.

C. albicans = system: C. albicans; design: unit not given beside the values; settings: compared with dKn2-7; cited from earlier work

Compound: CC[C@@H](C)[C@@H](NC(=O)[C@H](N)Cc1ccccc1)C(=O)NCC(=O)N[C@H](C)C(=O)N[C@@H](C(=O)N[C@H](C)C(=O)N[C@H](CCCNC(=N)N)C(=O)N[C@H](CC(C)C)C(=O)N[C@H](CC(C)C)C(=O)N[C@H](CO)C(=O)N[C@H](CCCCN)C(=O)N[C@@H](C(=O)N[C@H](Cc1ccccc1)C(=O)O)[C@H](C)CC)[C@H](C)CC [dBmKn2] (H-[dF][dI]G[dA][dI][dA][dR][dL][dL][dS][dK][dI][dF]-OH; N-terminus and C-terminus assumed)
- concentration at which a significant increase in hemolysis starts (human red blood cells): 100 µg/mL

Compound: CC[C@H](C)[C@H](NC(=O)CN)C(=O)NCC(=O)N[C@@H](C)C(=O)N[C@H](C(=O)N[C@@H](CC(C)C)C(=O)N[C@@H](CCCCN)C(=O)N[C@H](C(=O)N[C@@H](CC(C)C)C(=O)N[C@H](C(=O)N[C@H](C(=O)NCC(=O)N[C@@H](CC(C)C)C(=O)N1CCC[C@H]1C(=O)N[C@@H](C)C(=O)N[C@@H](CC(C)C)C(=O)N[C@H](C(=O)N[C@@H](CO)C(=O)N[C@@H](Cc1c[nH]c2ccccc12)C(=O)N[C@H](C(=O)N[C@@H](CCCCN)C(=O)N[C@@H](CCCNC(=N)N)C(=O)N[C@@H](CCCCN)C(=O)N[C@@H](CCCNC(=N)N)C(=O)N[C@@H](CCC(N)=O)C(=O)N[C@@H](CCC(N)=O)C(N)=O)[C@@H](C)CC)[C@@H](C)CC)[C@@H](C)O)[C@@H](C)O)C(C)C)C(C)C [melittin, reference compound]
- concentration at which a significant increase in hemolysis starts (human red blood cells): ≥ 3.125 µg/mL

Compound: CC[C@@H](C)[C@@H](NC(=O)[C@H](N)Cc1ccccc1)C(=O)N[C@H](CCCCN)C(=O)N[C@H](CCCNC(=N)N)C(=O)N[C@@H](C(=O)N[C@H](C)C(=O)N[C@H](CCCNC(=N)N)C(=O)N[C@H](CC(C)C)C(=O)N[C@H](CC(C)C)C(=O)N[C@H](CCCNC(=N)N)C(=O)N[C@H](CCCCN)C(=O)N[C@@H](C(=O)N[C@H](Cc1ccccc1)C(=O)O)[C@H](C)CC)[C@H](C)CC [dKn2-7] (H-[dF][dI][dK][dR][dI][dA][dR][dL][dL][dR][dK][dI][dF]-OH; N-terminus and C-terminus assumed)
- remaining at 24 h, 50 μg/mL [1]: ~43%
- reduction of peptide amount [1]: about 20%
- concentration at which a significant increase in hemolysis starts (human red blood cells): 200 µg/mL

Compound: FIKRIARLLRKIF [Kn2-7, FIKRIARLLRKIF (SEQ ID NO. 2)]
- remaining at 24 h, 50 μg/mL [1]: ~9%
- reduction of peptide amount [1]: about 20%
- concentration at which a significant increase in hemolysis starts (human red blood cells): 200 µg/mL

Compound: LL-37: well-studied LL-37 peptide
- MIC against C. albicans, times higher than dKn2-7 (C. albicans): ~3 ×

Compound: FIGAIARLLSKIF [BmKn2, FIGAIARLLSKIF (SEQ ID NO. 1)]
- concentration at which a significant increase in hemolysis starts (human red blood cells): 100 µg/mL
